The source of these data is patent US9096582B2, “Gamma secretase modulators” (MERCK SHARP & DOHME CORP, priority 2011, dated 2015).

Test [1] concerns the target T1, γ-secretase (Homo sapiens, UniProt P49768).
T1 construct: Human embryonic kidney (HEK) 293 cells stably transfected with APPsw-lon in pcDNA3.1 vector; endogenous in cells; host or cells: HEK293 cells stably transfected with APPsw-lon (substrate only) in pcDNA3.1
Kind of test: Cell based γ-secretase assay (Aβ42 in conditioned media, MSD sandwich immunoassay). The note with it: HEK 293 cells stably transfected with APPsw-lon; 5 hrs treatment; means of two independent experiments. As to the method: Cell Based γ-Secretase Assay (In Vitro Assay Method)
Human embryonic kidney (HEK) 293 cells stably transfected with APPsw-lon in pcDNA3.1 vector (Invitrogen) were treated with gamma secretase modulator (GSM) compounds (see Table below) for 5 hrs. Aβ in conditioned media was measured using MesoScale Discovery (MSD) technology based sandwich immunoassays. Aβ42 was measured using a pair of labeled antibodies TAG-G2-11 (described in Ida, N. et al., Journal of Biological Chemistry, 1996, 271, p. 22908-22914) and biotin-4G8 (Covance); γ-secretase activity is expressed as the concentration of compound producing 50% inhibition of the enzyme activity. The data presented below in the Table were the means of two independent experiments.

For test [2], the system named is Rat CSF Aβ42. Kind of test: Cerebrospinal fluid (CSF) Aβ analysis (in vivo assay method). The note with it: male CD rats; oral, 30 mg/kg in 20% hydroxypropyl β-cyclodextrin; CSF collected three hours after dosing. As to the method:
Cerebrospinal Fluid (CSF) Aβ Analysis (In Vivo Assay Method)
Male CD rats (100 g; Charles River Laboratories) were orally administered a GSM compound (formulated in 20% hydroxypropyl β-cyclodextin; 5 ml/kg). Three hours later, the animals were euthanized with excess CO2, and CSF was immediately collected from the cisterna magna and frozen on dry ice; only clear samples were analyzed. Rat CSF Aβ42 was analyzed using AlphaLISA Amyloid Assay kits (Perkin-Elmer) according to the manufacturer's instructions. In vivo activity of the tested GSM compounds is expressed as the percentage of Aβ42 reduction in CSF after administration of the compound and is presented in the Table.

For orientation: IC50 means the midpoint of a concentration-inhibition curve. A higher IC50 goes with lower potency.

`COc1cc(-c2noc3c2CCCC3Oc2ccc(F)cc2)ccc1-n1cnc(C)c1` (racemic) [7-(4-Fluorophenoxy)-3-(3-methoxy-4-(4-methyl-1H-imidazol-1-yl)phenyl)-4,5,6,7-tetrahydrobenzo[d]isoxazole] gave an IC50 in test [1] of 295 nM.

The compound `COc1cc(-c2noc3c2CCCC3(O)Cc2cc(F)cc(F)c2)ccc1-n1cnc(C)c1` (racemic) yielded a 50% inhibitory concentration (IC50) in test [1] of 150 nM.

In test [1], `COc1cc(-c2noc3c2CCCC3NCc2ccc(F)cc2)ccc1-n1cnc(C)c1` (racemic) showed an IC50 of 131 nM.

For `COc1cc(-c2noc3c2CCCC3Oc2cc(F)cc(F)c2)ccc1-n1cnc(C)c1` (racemic), in test [1], the IC50 came out at 205 nM.

`COc1cc(-c2noc3c2CCCC3NC2CCCCC2)ccc1-n1cnc(C)c1` (racemic) yielded an IC50 in test [1] of 311 nM.

Regarding `COc1cc(-c2noc3c2CCCC3Nc2ccc(F)cc2)ccc1-n1cnc(C)c1` (single isomer, unassigned) [drawing 26, N-(4-Fluorophenyl)-3-(3-methoxy-4-(4-methyl-1H-imidazol-1-yl)phenyl)-4,5,6,7-tetrahydrobenzo[d]isoxazol-7-amine], the “% CSF Aβ42 Reduction After 30 mg/kg Dosing” value in test [2] is reported as 37%. 403 nM corresponded to half-maximal inhibition in test [1] (IC50).

In test [1], `COc1cc(-c2noc3c2CCCC3N[C@H](C)c2ccc(F)cc2)ccc1-n1cnc(C)c1` (mixture of isomers) had an IC50 of 255 nM.

Turning to `COc1cc(-c2noc3c2CCCC3Nc2ccc(F)cc2)ccc1-n1cnc(C)c1` (single isomer, unassigned) [drawing 25, N-(4-Fluorophenyl)-3-(3-methoxy-4-(4-methyl-1H-imidazol-1-yl)phenyl)-4,5,6,7-tetrahydrobenzo[d]isoxazol-7-amine], the “% CSF Aβ42 Reduction After 30 mg/kg Dosing” value in test [2] is 58%. Moreover, in test [1], the half-inhibitory concentration (IC50) was 39.4 nM.

In the case of `COc1cc(-c2noc3c2CCCC3c2cc(F)cc(F)c2)ccc1-n1cnc(C)c1` (racemic) [7-(3,5-Difluorophenyl)-3-(3-methoxy-4-(4-methyl-1H-imidazol-1-yl)phenyl)-4,5,6,7-tetrahydrobenzo[d]isoxazole], the “% CSF Aβ42 Reduction After 30 mg/kg Dosing” value in test [2] was found to be 0%. Further, inhibition in test [1] was half-maximal at 113 nM (IC50).

Compound `CNC1CCCc2c(-c3ccc(-n4cnc(C)c4)c(OC)c3)noc21` (racemic) showed an IC50 in test [1] of 12200 nM.

With `COc1cc(-c2noc3c2CCCC3NCc2cc(F)cc(F)c2)ccc1-n1cnc(C)c1` (single isomer, unassigned) [drawing 34], the “% CSF Aβ42 Reduction After 30 mg/kg Dosing” value in test [2] stood at 20%. Further, in test [1], half-maximal inhibition (IC50) was put at 29.4 nM.

Turning to `COc1cc(-c2noc3c2CCCC3NCC(F)(F)F)ccc1-n1cnc(C)c1` (racemic), it took 464 nM to reach half-maximal inhibition in test [1] (IC50).

Compound `COc1cc(-c2noc3c2CCCC3N(C)Cc2ccc(F)cc2)ccc1-n1cnc(C)c1` (racemic) registered an IC50 in test [1] of 319 nM.

As for `COc1cc(-c2noc3c2CCCC3NCc2cc(F)cc(F)c2)ccc1-n1cnc(C)c1` (single isomer, unassigned) [drawing 33], in test [2], the “% CSF Aβ42 Reduction After 30 mg/kg Dosing” value was determined as 7%. Half-maximal inhibition in test [1] (IC50) was put at 644 nM.

Take `COc1cc(-c2noc3c2CCCC3OCc2cc(F)cc(F)c2)ccc1-n1cnc(C)c1` (racemic) [7-(3,5-Difluorobenzyloxy)-3-(3-methoxy-4-(4-methyl-1H-imidazol-1-yl)phenyl)-4,5,6,7-tetrahydrobenzo[d]isoxazole]: half-maximal inhibition in test [1] (IC50) was put at 514 nM.

Take `COc1cc(-c2noc3c2CCCC3(O)c2cc(F)cc(F)c2)ccc1-n1cnc(C)c1` (racemic) [7-(3,5-Difluorophenyl)-3-(3-methoxy-4-(4-methyl-1H-imidazol-1-yl)phenyl)-4,5,6,7-tetrahydrobenzo[d]isoxazol-7-ol]: the “% CSF Aβ42 Reduction After 30 mg/kg Dosing” value in test [2] was determined as 19%. In test [1], the IC50 came to 189 nM.
